Laboratory results published in US20100210654A1, “NOVEL P2Y12 RECEPTOR ANTAGONISTS” (RHEINISCHE FRIEDRICH-WILHELMS UNIVERSITÄT BONN, priority 2007, published 2010).

target: hP2Y4 Receptor (Homo sapiens, UniProt P51582); assay: Inhibition of agonist-induced calcium mobilization, recombinant receptor in human astrocytoma cells; assay type: cell-based; conditions: mean ± SEM
Description: (§1) Inhibition of agonist-induced calcium mobilization was determined as previously described (Kaulich M. et al, Drug Dev. Res. 2003, 59, 72-81) using NG108-15 cells for the mouse P2Y2 receptor, or human recombinant P2Y receptors stably expressed in human astrocytoma cells (El-Tayeb, A. et al., J. Med. Chem. 2006, 49, 7076-87).
(§2) The data were analyzed using GraphPad Prism 4.0 (GraphPad Software, Inc., San Diego, Calif.).

Sequence of hP2Y4 Receptor (P51582 whole entry): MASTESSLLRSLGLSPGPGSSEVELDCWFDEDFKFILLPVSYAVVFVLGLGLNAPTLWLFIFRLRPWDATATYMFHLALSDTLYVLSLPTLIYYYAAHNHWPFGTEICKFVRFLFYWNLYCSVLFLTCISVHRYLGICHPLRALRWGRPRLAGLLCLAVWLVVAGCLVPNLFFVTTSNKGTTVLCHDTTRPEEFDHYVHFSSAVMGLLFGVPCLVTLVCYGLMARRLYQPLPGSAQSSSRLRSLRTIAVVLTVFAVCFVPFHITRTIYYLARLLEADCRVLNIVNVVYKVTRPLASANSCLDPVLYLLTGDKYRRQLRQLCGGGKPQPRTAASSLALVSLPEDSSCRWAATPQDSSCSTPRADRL

Structure (SMILES)	IC50
Nc1ccc(Nc2cc(S(=O)(=O)O)c(N)c3c2C(=O)c2ccccc2C3=O)cc1S(=O)(=O)O [Entry 5]	11 ± 3 µM
Nc1c(S(=O)(=O)O)cc(Nc2cccc(S(=O)(=O)O)c2)c2c1C(=O)c1ccccc1C2=O [Entry 1]	18.5 ± 2.5 µM
COc1ccc(CCNc2cc(S(=O)(=O)O)c(N)c3c2C(=O)c2ccccc2C3=O)cc1OC [Entry 21]	> 30 µM
Nc1c(S(=O)(=O)O)cc(Nc2cccc(Cl)c2)c2c1C(=O)c1ccccc1C2=O [Entry 27]	> 3 µM

target: rP2Y6 Receptor (Rattus norvegicus, UniProt Q63371); assay: as above; assay type: cell-based; conditions: mean ± SEM
Description: as §1, §2

Sequence of rP2Y6 Receptor (Q63371 whole entry): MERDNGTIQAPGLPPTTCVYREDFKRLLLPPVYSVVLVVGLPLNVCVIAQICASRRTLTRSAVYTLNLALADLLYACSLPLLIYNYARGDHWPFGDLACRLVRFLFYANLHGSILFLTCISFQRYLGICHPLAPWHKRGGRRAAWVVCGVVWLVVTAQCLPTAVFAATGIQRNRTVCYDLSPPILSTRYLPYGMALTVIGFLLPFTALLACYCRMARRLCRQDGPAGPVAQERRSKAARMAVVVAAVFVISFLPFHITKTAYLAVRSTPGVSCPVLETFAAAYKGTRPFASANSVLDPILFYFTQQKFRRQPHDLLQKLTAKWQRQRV

Structure (SMILES)	IC50
Nc1ccc(Nc2cc(S(=O)(=O)O)c(N)c3c2C(=O)c2ccccc2C3=O)cc1S(=O)(=O)O [Entry 5]	24.3 ± 3.4 µM
Nc1c(S(=O)(=O)O)cc(Nc2cccc(S(=O)(=O)O)c2)c2c1C(=O)c1ccccc1C2=O [Entry 1]	~100 µM
COc1ccc(CCNc2cc(S(=O)(=O)O)c(N)c3c2C(=O)c2ccccc2C3=O)cc1OC [Entry 21]	> 100 µM
Nc1c(S(=O)(=O)O)cc(Nc2cccc(Cl)c2)c2c1C(=O)c1ccccc1C2=O [Entry 27]	> 100 µM

target: T1, hP2Y2 Receptor (Homo sapiens, UniProt P41231); assay: as above; assay type: cell-based; conditions: mean ± SEM
T1 construct: expressed in transfected cells; host or cells: human astrocytoma cells
Description: as §1, §2

T1 sequence (P41231 whole entry): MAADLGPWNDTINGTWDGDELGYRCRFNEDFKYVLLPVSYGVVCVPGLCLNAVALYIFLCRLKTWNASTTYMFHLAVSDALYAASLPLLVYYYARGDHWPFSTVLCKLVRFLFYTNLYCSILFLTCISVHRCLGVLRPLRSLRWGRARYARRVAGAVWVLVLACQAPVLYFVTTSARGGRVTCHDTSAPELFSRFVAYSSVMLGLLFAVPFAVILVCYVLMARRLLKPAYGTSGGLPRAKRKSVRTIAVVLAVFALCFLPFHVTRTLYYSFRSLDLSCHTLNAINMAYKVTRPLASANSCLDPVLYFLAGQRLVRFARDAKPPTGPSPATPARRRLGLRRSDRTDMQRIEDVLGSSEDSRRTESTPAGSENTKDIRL

Structure (SMILES)	IC50
Nc1c(S(=O)(=O)O)cc(Nc2cccc([N+](=O)[O-])c2)c2c1C(=O)c1ccccc1C2=O [Entry 28]	7.52 ± 0.82 µM
Nc1c(S(=O)(=O)O)cc(Nc2cccc(Cl)c2)c2c1C(=O)c1ccccc1C2=O [Entry 27]	24.5 ± 10.4 µM

tested on: not given; assay: not given; conditions: not given

melting point	Structure (SMILES)
> 300 °C	COc1ccc(Nc2cc(S(=O)(=O)[O-])c(N)c3c2C(=O)c2ccccc2C3=O)cc1.[Na+] [Example 19, Sodium 1-amino-4-(4-methoxyphenylamino)-9,10-dioxo-9,10-dihydroanthracene 2-sulfonate]
> 300 °C	Nc1c(S(=O)(=O)[O-])cc(Nc2ccc(CC(=O)O)cc2)c2c1C(=O)c1ccccc1C2=O.[Na+] [Example 15, Sodium 1-amino-4-(4-carboxymethylphenylamino)-9,10-dioxo-9,10-dihydro-anthracene 2-sulfonate]
> 300 °C	Nc1ccccc1Nc1cc(S(=O)(=O)[O-])c(N)c2c1C(=O)c1ccccc1C2=O.[Na+] [Example 5, Sodium 1-amino-4-(2-aminophenylamino)-9,10-dioxo-9,10-dihydroanthracene 2-sulfonate]
> 300 °C	Nc1cccc(Nc2cc(S(=O)(=O)[O-])c(N)c3c2C(=O)c2ccccc2C3=O)c1.[Na+]
> 300 °C	Nc1ccc(Nc2cc(S(=O)(=O)[O-])c(N)c3c2C(=O)c2ccccc2C3=O)cc1.[Na+]
> 300 °C	Cc1cc(C)cc(Nc2cc(S(=O)(=O)[O-])c(N)c3c2C(=O)c2ccccc2C3=O)c1.[Na+] [Example 22, Sodium 1-amino-4-(3,5-dimethylphenylamino)-9,10-dioxo-9,10-dihydroanthracene 2-sulfonate]
> 300 °C	Cc1c(N)cccc1Nc1cc(S(=O)(=O)[O-])c(N)c2c1C(=O)c1ccccc1C2=O.[Na+] [Example 24, Sodium 1-amino-4-(3-amino-2-methylphenylamino)-9,10-dioxo-9,10-dihydroanthracene 2-sulfonate]
> 300 °C	Nc1c(S(=O)(=O)[O-])cc(Nc2ccccc2O)c2c1C(=O)c1ccccc1C2=O.[Na+]
> 300 °C	Nc1c(S(=O)(=O)[O-])cc(Nc2ccc(O)c(C(=O)O)c2)c2c1C(=O)c1ccccc1C2=O.[Na+] [Example 25, Sodium 1-amino-4-(3-carboxy-4-hydroxyphenylamino)-9,10-dioxo-9,10-dihydroanthracene 2-sulfonate]
> 300 °C	COc1cccc(Nc2cc(S(=O)(=O)[O-])c(N)c3c2C(=O)c2ccccc2C3=O)c1.[Na+] [Example 18, Sodium 1-amino-4-(3-methoxyphenylamino)-9,10-dioxo-9,10-dihydroanthracene 2-sulfonate]
> 300 °C	Nc1c(S(=O)(=O)[O-])cc(Nc2ccc(C(=O)O)cc2)c2c1C(=O)c1ccccc1C2=O.[Na+] [Example 4, Sodium 1-amino-4-(4-carboxyphenylamino)-9,10-dioxo-9,10-dihydroanthracene 2-sulfonate]
> 300 °C	Nc1c(S(=O)(=O)[O-])cc(Nc2ccc(F)cc2)c2c1C(=O)c1ccccc1C2=O.[Na+] [Example 20, Sodium 1-amino-4-(4-fluorophenylamino)-9,10-dioxo-9,10-dihydroanthracene 2-sulfonate]
> 300 °C	Nc1c(S(=O)(=O)[O-])cc(Nc2cccc(Br)c2)c2c1C(=O)c1ccccc1C2=O.[Na+] [Example 21, Sodium 1-amino-4-(3-bromophenylamino)-9,10-dioxo-9,10-dihydroanthracene 2-sulfonate]
> 300 °C	Nc1c(S(=O)(=O)[O-])cc(Nc2ccccc2S(=O)(=O)[O-])c2c1C(=O)c1ccccc1C2=O.[Na+].[Na+] [Example 26, Disodium 1-amino-4-(2-sulfophenylamino)-9,10-dioxo-9,10-dihydroanthracene 2-sulfonate]
> 300 °C	Nc1c(S(=O)(=O)[O-])cc(Nc2cccc(C(=O)O)c2)c2c1C(=O)c1ccccc1C2=O.[Na+] [Example 3, Sodium 1-amino-4-(3-carboxyphenylamino)-9,10-dioxo-9,10-dihydroanthracene 2-sulfonate]

Structure (SMILES)	melting point
Nc1c(S(=O)(=O)[O-])cc(Nc2ccc(O)cc2)c2c1C(=O)c1ccccc1C2=O.[Na+]	> 300 °C
Nc1cc(Nc2cc(S(=O)(=O)[O-])c(N)c3c2C(=O)c2ccccc2C3=O)cc(C(=O)O)c1.[Na+]	> 300 °C
Nc1c(S(=O)(=O)[O-])cc(Nc2ccc(S(=O)(=O)[O-])cc2)c2c1C(=O)c1ccccc1C2=O.[Na+].[Na+]	> 300 °C
Nc1c(S(=O)(=O)[O-])cc(Nc2ccccc2C(=O)O)c2c1C(=O)c1ccccc1C2=O.[Na+]	> 300 °C
Nc1c(S(=O)(=O)[O-])cc(Nc2cc(Cl)ccc2C(=O)O)c2c1C(=O)c1ccccc1C2=O.[Na+]	> 300 °C

target: T2, human platelet P2Y12 receptors (Homo sapiens, UniProt Q9H244); assay: Radioligand binding assay with [3H]PSB-0413 at human platelet membranes; conditions: not given
T2 construct: Membranes were prepared from human outdated platelets from the blood bank; from tissue; host or cells: human platelets (University of Bonn blood bank), membrane preparation
Description: Membranes were prepared from human outdated platelets from the blood bank. Outdated human platelets were obtained from the University of Bonn blood bank 4-5 days after donation. Platelet rich plasma was washed by centrifugation (10 min at 1000 g) in a buffer consisting of 50 mM Tris-HCl, pH 7.4, 5 mM EDTA and 150 mM NaCl. The supernatant was centrifuged twice (48400 g for 60 min) and the resultant platelet pellet were resuspended in 5 mM Tris-HCl (pH 7.4) containing 5 mM EDTA. The platelets were homogenized by a homogenizer. The final suspension was stored frozen as multiple aliquots at −80° C. until needed. Protein concentrations were determined by the method of Lowry using a Sigma Chemie protein assay kit.
Radioligand binding assays were performed using 5 nM [^3H]PSB-0413 and 100 μg of protein in Tris-HCl buffer 50 mM, pH 7.4, as previously described. (El-Tayeb, A., Griessmeier, K. J, Müller, C. E. Bioorg. Med. Chem. Lett. 2005, 15, 5450-52; Atzler, K. Doctoral Thesis, University of Bonn, 2006). Competition by 10 μM of test compound was initially determined. The mixture was incubated for 1 h at rt followed by filtration through GF/B filters. Nonspecific binding was determined with 1 mM ADP or 250 μM RB 2. […] At least three independent experiments were performed each in triplicate.
as §2

T2 sequence (Q9H244 whole entry): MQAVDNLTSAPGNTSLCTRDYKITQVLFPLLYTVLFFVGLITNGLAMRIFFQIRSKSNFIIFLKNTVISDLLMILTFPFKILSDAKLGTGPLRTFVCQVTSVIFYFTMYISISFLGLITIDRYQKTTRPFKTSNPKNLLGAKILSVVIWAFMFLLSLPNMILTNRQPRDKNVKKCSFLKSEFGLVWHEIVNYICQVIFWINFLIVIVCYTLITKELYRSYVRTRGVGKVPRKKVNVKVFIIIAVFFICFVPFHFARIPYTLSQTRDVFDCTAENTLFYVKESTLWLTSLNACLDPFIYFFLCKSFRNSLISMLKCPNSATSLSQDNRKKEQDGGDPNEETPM

Structure (SMILES)	Ki
Nc1c(S(=O)(=O)O)cc(Nc2ccc(S(=O)(=O)O)c(Nc3nc(Cl)nc(Cl)n3)c2)c2c1C(=O)c1ccccc1C2=O [Entry 31]	17.1 ± 7.8 µM

same assay, conditions: human platelet membranes, 5 nM [3H]PSB-0413, 1 h at rt; mean ± SEM; read-out: hP2Y12 Receptor Ki [μM ± SEM] vs. [3H]PSB-0413

Structure (SMILES)	Ki
Nc1c(S(=O)(=O)O)cc(Nc2ccc(O)cc2)c2c1C(=O)c1ccccc1C2=O [Entry 12]	~10 µM
Nc1ccc(Nc2cc(S(=O)(=O)O)c(N)c3c2C(=O)c2ccccc2C3=O)cc1S(=O)(=O)O [Entry 5]	2.39 ± 0.65 µM
Nc1c(S(=O)(=O)O)cc(Nc2cc(Nc3nc(Cl)nc(Cl)n3)cc(C(=O)O)c2)c2c1C(=O)c1ccccc1C2=O [Entry 34]	3.76 ± 1.03 µM
Nc1cc(Nc2cc(S(=O)(=O)O)c(N)c3c2C(=O)c2ccccc2C3=O)cc(C(=O)O)c1 [Entry 6]	7.07 ± 1.7 µM
Nc1ccc(Nc2cc(S(=O)(=O)O)c(N)c3c2C(=O)c2ccccc2C3=O)c(S(=O)(=O)O)c1 [Entry 9]	19.7 ± 8.27 µM
Nc1c(S(=O)(=O)O)cc(Nc2cccc(S(=O)(=O)O)c2)c2c1C(=O)c1ccccc1C2=O [Entry 1]	3.81 ± 1.08 µM
Nc1c(S(=O)(=O)O)cc(Nc2ccc(Sc3ccccc3)cc2)c2c1C(=O)c1ccccc1C2=O [Entry 19]	0.884 ± 0.525 µM
Nc1c(S(=O)(=O)O)cc(Nc2ccc(Nc3nc(O)nc(O)n3)cc2S(=O)(=O)O)c2c1C(=O)c1ccccc1C2=O [Entry 39]	> 10 µM
Nc1c(S(=O)(=O)O)cc(Nc2ccc(Cl)cc2C(=O)O)c2c1C(=O)c1ccccc1C2=O [Entry 10]	12.3 ± 1.7 µM
Nc1c(S(=O)(=O)O)cc(Nc2cc(Cl)ccc2C(=O)O)c2c1C(=O)c1ccccc1C2=O [Entry 7]	12.2 ± 0.3 µM
Nc1c(S(=O)(=O)O)cc(Nc2ccccc2O)c2c1C(=O)c1ccccc1C2=O [Entry 11]	~10 µM
Nc1c(S(=O)(=O)O)cc(Nc2ccc(Oc3ccccc3)c(S(=O)(=O)O)c2)c2c1C(=O)c1ccccc1C2=O [Entry 22]	0.063 ± 0.009 µM
Nc1c(S(=O)(=O)O)cc(Nc2cccc(Cl)c2)c2c1C(=O)c1ccccc1C2=O [Entry 27]	6.76 ± 2.07 µM
Cc1cc(Nc2ccc(Nc3ccccc3)c(S(=O)(=O)O)c2)c2c(c1N)C(=O)c1ccccc1C2=O [Entry 30]	0.541 µM
Nc1c(S(=O)(=O)O)cc(Nc2ccc(Nc3nc(Cl)nc(Cl)n3)cc2)c2c1C(=O)c1ccccc1C2=O [Entry 35]	1.9 ± 0.24 µM
Nc1c(S(=O)(=O)O)cc(Nc2ccc(Nc3ccccc3)c(S(=O)(=O)O)c2)c2c1C(=O)c1ccccc1C2=O [Entry 24]	0.0249 ± 0.0032 µM
Nc1c(S(=O)(=O)O)cc(Nc2ccc(Nc3nc(O)nc(O)n3)c(S(=O)(=O)O)c2)c2c1C(=O)c1ccccc1C2=O [Entry 38]	~10 µM
Nc1c(S(=O)(=O)O)cc(Nc2ccc(Nc3nc(Cl)nc(Cl)n3)c(S(=O)(=O)O)c2)c2c1C(=O)c1ccccc1C2=O [Entry 32]	2.45 ± 1 µM
Nc1c(S(=O)(=O)O)cc(Nc2ccccc2C(=O)O)c2c1C(=O)c1ccccc1C2=O [Entry 8]	25.1 ± 7 µM
Nc1cc(Nc2cc(S(=O)(=O)O)c(N)c3c2C(=O)c2ccccc2C3=O)ccc1S(=O)(=O)O [Entry 4]	2.1 ± 0.47 µM
Nc1c(S(=O)(=O)O)cc(Nc2ccc(Nc3ncccn3)cc2)c2c1C(=O)c1ccccc1C2=O [Entry 36]	~10 µM
Nc1c(S(=O)(=O)O)cc(Nc2ccc(S(=O)(=O)O)cc2)c2c1C(=O)c1ccccc1C2=O [Entry 2]	3.13 ± 0.39 µM
Nc1cccc(Nc2cc(S(=O)(=O)O)c(N)c3c2C(=O)c2ccccc2C3=O)c1 [Entry 14]	> 10 µM
Nc1c(S(=O)(=O)O)cc(Nc2ccc(Cc3ccccc3)cc2)c2c1C(=O)c1ccccc1C2=O [Entry 13]	0.614 µM
